Data on five molecules can be found in patent US9980943B2, “Methods of treating muscular dystrophy” (BOARD OF REGENTS OF THE NEVADA SYSTEM OF HIGHER EDUCATION, …, priority 2013, dated 2018).

The structures appear in SMILES notation.

What all share (format): cell-based, mouse
For assay [1], the system named is β-galactosidase in CMV-LacZ C2C12 myoblasts. Briefly: CMV-LacZ secondary screen in C2C12 myoblasts (β-Gal stabilizing assay). As to conditions: for CMV-LACZ in Myoblasts (β-galactosidase activity relative to DMSO): CMV-LacZ C2C12 myoblasts; for CMV-LACZ in Myoblasts, value relative to DMSO: SU9516 analogs, C2C12 CMV-LacZ, N=2. The method in brief: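 CMV-LacZ C2C12 line (clonal, FDG-screened); myoblasts/myotubes dosed 0.5–40 μM (0.5, 1, 5, 10, 20, 40 μM); n=2 per point; β-gal stabilization read-out.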

The test system of assay [2] is α7 integrin (LacZ reporter in α7+/LacZ myotubes). Put plainly: Myotube α7 integrin FDG assay (Burkin assay in myotubes, 96-well). The following applies: for Burkin Assay in Myotubes, value relative to DMSO: SU9516 analogs, 96-well, N=3-6.
Assay [3] concerns α7 integrin (LacZ reporter in α7βgal+/− myoblasts). Briefly: Myoblast α7+/LacZ integrin FDG assay (Burkin assay in myoblasts, 96-well). As to conditions: 96-well; for Burkin Assay in Myoblasts, signal relative to DMSO: α7+/LacZ myoblasts; for Burkin Assay in Myoblasts, value relative to DMSO: SU9516 analogs, N=3-6.
The test system of assay [4] is β-galactosidase in CMV-LacZ C2C12 myotubes. Briefly: CMV-LacZ secondary screen in C2C12 myotubes (β-Gal stabilizing assay). As to conditions: for CMV-LACZ in Myotubes, signal relative to DMSO: C2C12 CMV-LacZ myotubes, fold relative to DMSO; for CMV-LACZ in Myotubes, value relative to DMSO: SU9516 analogs, C2C12 CMV-LacZ, N=2. A digest of the protocol: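 β-Gal level was the read-out, measured in a clonal C2C12 line expressing LacZ from a CMV promoter. Dose-response curves used six concentrations, 0.5 μM up to 40 μM, with duplicate points.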

As to `Cc1ccc(C(=O)N2CCN(S(=O)(=O)N3CCOCC3)CC2)cc1` [MLS000663185-01], the “CMV-LACZ in Myoblasts (β-galactosidase activity relative to DMSO)” value in assay [1] (0.5 uM) was found to be 1.1390; in assay [1] (1 uM) it was 1.1477; in assay [1] (5 uM), 0.9688; in assay [1] (10 uM), 0.8567; in assay [1] (20 uM), 0.9211; in assay [1] (40 uM) it was 0.9347. The “Burkin Assay in Myotubes, α7 integrin LacZ reporter signal relative to DMSO” value in assay [2] (0.5 uM) is listed as 0.968; in assay [2] (1 uM), 0.8137; in assay [2] (5 uM), 0.9767; in assay [2] (10 uM), 1.0708; in assay [2] (20 uM), 0.7791; in assay [2] (40 uM), 1.118. Also, the “Burkin Assay in Myoblasts, signal relative to DMSO” value worked out at 1.109 in assay [3] (0.5 uM); 0.9744 in assay [3] (1 uM); 1.399 in assay [3] (5 uM); 0.9312 in assay [3] (10 uM); 0.9222 in assay [3] (20 uM); 0.8328 in assay [3] (40 uM). Also, the “CMV-LACZ in Myotubes, signal relative to DMSO” value is 1.0924 in assay [4] (0.5 uM); 0.9800 in assay [4] (1 uM); 0.9322 in assay [4] (5 uM); 0.8722 in assay [4] (10 uM); 0.9540 in assay [4] (20 uM); 1.1270 in assay [4] (40 uM).

`Cc1ccc2c(c1)/C(=C/c1ccccc1C)C(=O)N2` [MLS001202402-01]: the “CMV-LACZ in Myoblasts, value relative to DMSO” value in assay [1] (0.5 uM) was 1.0546; in assay [1] (1 uM), 1.0106; in assay [1] (5 uM) it was 0.8771; in assay [1] (10 uM), 0.7598; in assay [1] (20 uM) it was 0.7204; in assay [1] (40 uM), 0.4819. Further, the “Burkin Assay in Myotubes, value relative to DMSO” value in assay [2] (0.5 uM) is reported as 0.9628; in assay [2] (1 uM) it was 0.8962; in assay [2] (5 uM), 0.9629; in assay [2] (10 uM), 1.0295; in assay [2] (20 uM), 0.5907; in assay [2] (40 uM) it was 0.3717. Moreover, the “Burkin Assay in Myoblasts, value relative to DMSO” value was 1.051 in assay [3] (0.5 uM); 0.9034 in assay [3] (1 uM); 0.9255 in assay [3] (5 uM); 1.08 in assay [3] (10 uM); 0.6481 in assay [3] (20 uM); 0.325 in assay [3] (40 uM). Moreover, the “CMV-LACZ in Myotubes, value relative to DMSO” value came to 0.9200 in assay [4] (0.5 uM); 0.8695 in assay [4] (1 uM); 0.9237 in assay [4] (5 uM); 0.8015 in assay [4] (10 uM); 0.8847 in assay [4] (20 uM); 0.8129 in assay [4] (40 uM).

For the molecule `CC(=O)Nc1ccc(NC(=O)C/C(C)=N/NC(=O)COc2cc(C)c(Br)cc2Br)cc1` [MLS000912562-01], the “CMV-LACZ in Myoblasts (β-galactosidase activity relative to DMSO)” value came out at 0.8680 in assay [1] (0.5 uM); 0.9150 in assay [1] (1 uM); 0.7103 in assay [1] (5 uM); 0.6246 in assay [1] (10 uM); 1.0302 in assay [1] (20 uM); 0.8747 in assay [1] (40 uM). Moreover, the “Burkin Assay in Myotubes, α7 integrin LacZ reporter signal relative to DMSO” value in assay [2] (0.5 uM) is recorded as 0.898; in assay [2] (1 uM) it was 0.8582; in assay [2] (5 uM), 0.929; in assay [2] (10 uM) it was 0.8748; in assay [2] (20 uM) it was 0.8872; in assay [2] (40 uM), 0.7024. The “Burkin Assay in Myoblasts, signal relative to DMSO” value in assay [3] (0.5 uM) was determined as 0.7697; in assay [3] (1 uM) it was 0.929; in assay [3] (5 uM), 1.039; in assay [3] (10 uM) it was 0.9253; in assay [3] (20 uM), 0.6911; in assay [3] (40 uM) it was 0.5552. The “CMV-LACZ in Myotubes, signal relative to DMSO” value in assay [4] (0.5 uM) came to 1.0905; in assay [4] (1 uM), 0.8924; in assay [4] (5 uM) it was 0.9602; in assay [4] (10 uM) it was 1.1674; in assay [4] (20 uM) it was 1.2090; in assay [4] (40 uM) it was 1.2780.

Turning to `Nc1ncnc(NCc2ccccc2)c1[N+](=O)[O-]` [MLS000698826-01], the “CMV-LACZ in Myoblasts (β-galactosidase activity relative to DMSO)” value worked out at 0.9942 in assay [1] (0.5 uM); 0.9717 in assay [1] (1 uM); 0.8824 in assay [1] (5 uM); 0.9013 in assay [1] (10 uM); 1.2944 in assay [1] (20 uM); 1.2519 in assay [1] (40 uM). The “Burkin Assay in Myotubes, α7 integrin LacZ reporter signal relative to DMSO” value in assay [2] (0.5 uM) came to 1.008; in assay [2] (1 uM), 0.8718; in assay [2] (5 uM) it was 1.08; in assay [2] (10 uM), 0.9001; in assay [2] (20 uM), 0.9575; in assay [2] (40 uM), 0.7844. Moreover, the “Burkin Assay in Myoblasts, signal relative to DMSO” value in assay [3] (0.5 uM) is listed as 1.019; in assay [3] (1 uM), 1.008; in assay [3] (5 uM) it was 1.246; in assay [3] (10 uM), 0.9598; in assay [3] (20 uM) it was 0.9937; in assay [3] (40 uM), 1.023. The “CMV-LACZ in Myotubes, signal relative to DMSO” value in assay [4] (0.5 uM) is 1.2010; in assay [4] (1 uM), 1.0200; in assay [4] (5 uM), 1.1232; in assay [4] (10 uM) it was 0.9634; in assay [4] (20 uM), 1.0505; in assay [4] (40 uM) it was 1.0789.

On to `Cc1cc(OCC(=O)NC(C)C)ccc1Cl` [MLS000684034-01], for which the “CMV-LACZ in Myoblasts (β-galactosidase activity relative to DMSO)” value in assay [1] (0.5 uM) was determined as 1.2525; in assay [1] (1 uM), 1.1492; in assay [1] (5 uM) it was 1.2045; in assay [1] (10 uM) it was 1.0568; in assay [1] (20 uM) it was 0.5374; in assay [1] (40 uM) it was 0.3100. Moreover, the “Burkin Assay in Myotubes, α7 integrin LacZ reporter signal relative to DMSO” value in assay [2] (0.5 uM) is on record as 0.9731; in assay [2] (1 uM), 0.9536; in assay [2] (5 uM), 0.8383; in assay [2] (10 uM), 0.8076; in assay [2] (20 uM), 0.7403; in assay [2] (40 uM), 0.7385. For the same molecule, the “Burkin Assay in Myoblasts, signal relative to DMSO” value in assay [3] (0.5 uM) is recorded as 0.999; in assay [3] (1 uM) it was 1.02; in assay [3] (5 uM), 0.7872; in assay [3] (10 uM), 0.6258; in assay [3] (20 uM), 0.4225; in assay [3] (40 uM) it was 0.3085. The “CMV-LACZ in Myotubes, signal relative to DMSO” value was 1.0962 in assay [4] (0.5 uM); 0.9810 in assay [4] (1 uM); 1.1407 in assay [4] (5 uM); 1.1903 in assay [4] (10 uM); 1.2347 in assay [4] (20 uM); 1.0105 in assay [4] (40 uM).
